Results reported in patent publication US5607937A, “Piperazides of substituted phenylalanine derivatives as thrombin inhibitors” (priority 1993, dated 1997).

Experiments:
[1] = tested on: coagulation in human plasma; experiment: thrombin time (TT) in human plasma
[2] = tested on: coagulation in rat plasma; experiment: aPTT in rat plasma after rectal application; assay type: in vivo
Procedure: (§1) After rectal administration of the compounds to be tested, the anticoagulant effect was determined in the plasma of experimental animals.

[3] = tested on: coagulation in rat plasma; experiment: thrombin time in rat plasma after rectal application; assay type: in vivo
Procedure: as §1

[4] = tested on: coagulation in human plasma; experiment: activated partial thromboplastin time (aPTT) in human plasma

For `CC(=O)N1CCN(C(=O)[C@H](Cc2cccc(C(=N)N)c2)NS(=O)(=O)c2ccc3ccccc3c2)CC1.Cl` [Compound 2, Nα-(2-naphthylsulfonyl)-(L)-3-amidinophenylalanine-4-acetylpiperazide hydrochloride], the “Concentr. to double the Thrombin time” value [1] was 0.055 µmol/L, the “concentration to double the TT” value [1] was “less than 10^-7 mol/1” and the “Clotting time, aPTT” value ([2]; rectal 5 mg/kg, 0 min) was 22.5 s. For the same compound, the “Clotting time, aPTT” value ([2]; rectal 5 mg/kg, 30 min) was 37 s, the “Clotting time, aPTT” value ([2]; rectal 5 mg/kg, 60 min) was 33 s and the “Clotting time, aPTT” value ([2]; rectal 5 mg/kg, 120 min) was 30 s. The “Clotting time, aPTT” value ([2]; rectal 5 mg/kg, 180 min) was 26.4 s, the “Clotting time, aPTT” value ([2]; rectal 20 mg/kg, 0 min) was 28 s and the “Clotting time, aPTT” value ([2]; rectal 20 mg/kg, 30 min) was 120 s. For the same compound, the “Clotting time, aPTT” value ([2]; rectal 20 mg/kg, 60 min) was 87 s, the “Clotting time, aPTT” value ([2]; rectal 20 mg/kg, 120 min) was 59 s and the “Clotting time, aPTT” value ([2]; rectal 20 mg/kg, 180 min) was 50 s. For the same compound, the “Clotting time, Thrombin time” value ([3]; rectal 5 mg/kg, 0 min) was 32 s, the “Clotting time, Thrombin time” value ([3]; rectal 5 mg/kg, 30 min) was over 300 s and the “Clotting time, Thrombin time” value ([3]; rectal 5 mg/kg, 60 min) was 224 s. The “Clotting time, Thrombin time” value ([3]; rectal 5 mg/kg, 120 min) was 176 s, the “Clotting time, Thrombin time” value ([3]; rectal 5 mg/kg, 180 min) was 107 s and the “Clotting time, Thrombin time” value ([3]; rectal 20 mg/kg, 0 min) was 64 s. For the same compound, the “Clotting time, Thrombin time” value ([3]; rectal 20 mg/kg, 30 min) was over 300 s, the “Clotting time, Thrombin time” value ([3]; rectal 20 mg/kg, 60 min) was over 300 s and the “Clotting time, Thrombin time” value ([3]; rectal 20 mg/kg, 120 min) was over 300 s. The “Clotting time, Thrombin time” value ([3]; rectal 20 mg/kg, 180 min) was over 300 s, the “Concentr. to double the aPTT” value [4] was 0.36 µmol/L and the “concentration to double the aPTT” value [4] was at most 1 μmol/1.
